pEC50: −log10 of the molar value.
Assays:
TNF-alpha = assay: Sub-lethal endotoxemia model (LPS challenge, serum TNF-alpha); format: in vivo, mouse; details: BN83250 subcutaneous, valerolactam oral gavage
Protocol: We selected the sub-lethal endotoxemia model in mouse, because this has been well characterised in our laboratory (see for example Fox et al. (2002) J. Med. Chem. 45:360-70; Fox et al. (2005) J. Med. Chem. 48:867-74). The extent of systemic inflammation in response to a single intraperitoneal injection of bacterial lipopolysaccharide (LPS) can be estimated by measuring serum TNF-alpha 2 hours post challenge.
Methods: Mice (CD1 strain; adult males; 6 per group) were treated with BSCI (in an appropriate vehicle) or with vehicle alone by an appropriate route. […] Simultaneously, one set of mice at each BSCI concentration received BIM 23627 at 4mg/animal (120mg/kg) by sub-cutaneous injection (a treatment condition known to suppress classical sstr2-mediated signalling, such as GH release, in rats; Tulipano et al. (2002) 143:1218-24). Between 30mins and 1hour after dosing (a period when a maximal plasma concentration of BSCI has been achieved), the inflammatory challenge was elicited by intraperitoneal injection of 750µg of LPS (Sigma; L4130 lot#024K4077; 900,000 EU/mg).
After a further 2 hours, the animals were sacrificed by CO2 asphyxiation, and blood was drawn by cardiac puncture. Serum was prepared by conventional methods, and the level of TNF-alpha in serum was measured using an ELISA (R&D Systems; Murine Quantikine code# MTA00) performed in accordance with the manufacturer's instructions.

fetal rat pituicytes = assay: Rat pituicyte GH suppression assay; format: cell-based; details: Rattus norvegicus; for Emax: Table 3, percentage suppression compared to vehicle, read-out: Rat pituicyte GH suppression assay Max effect (%); for pEC50: Table 3, read-out: Rat pituicyte GH suppression assay ED50
From the text: Two different assays for "classical" sstr2 functions were adopted: (1) cultured foetal rat pituitary cells secreted growth hormone which is inhibited by sstr2 agonists in a dose-dependent fashion and (2) selected glucose-sensitive sub-clones of the human Panc-1 cell line secrete insulin which is inhibited by sstr2 agonists in a dose-dependent fashion.
Methods: Cultures of fetal rat pituicytes were established exactly as previously described (Murray et al. (2004) J. Clin. Endocrinol. Metab. 89:3027-32) by enzymatic dispersion. After 48hrs in low glucose DMEM plus 10% FCS, cells in 48 well plates (5 x 10^4 cells per well) were washed for 4hrs in serum-free DMEM and then incubated with test agents at various concentrations for a further 24hrs in serum-free DMEM. At the end of this period, the conditioned medium was harvested, any cell debris removed by centrifugation and assayed for GH using a commercially available ELISA (Linco; cat# EZRMGH-45K) in accordance with the manufacturer's instructions.
Results were reported as the mean ± SD, expressed as the fold change from cells in the presence of vehicle only.

[1] = tested on: rat peripheral blood leukocytes; assay: Rat chemokine-induced PBMC migration assay; format: cell-based; details: for pEC50 / Emax: Rattus norvegicus, Leukocyte, Table 3; for pEC50: read-out: Rat chemokine-induced PBMC migration assay ED50; for Emax: read-out: Rat chemokine-induced PBMC migration assay Max effect (%); for "Classical" : "BSCI" potency ratio Rat: Table 3, rat PBMC migration ED50 versus rat pituicyte GH suppression ED50
Jurkat-D3B cells = assay: SDF-1α induced migration of Jurkat-D3B cells expressing sstr2; format: cell-based, human
Protocol: Methods: Total mRNA was prepared from Panc-1 cells (a human pancreas cell line which is well known to express high levels of sstr2) using the RNAqueous 4PCR kit (Ambion, Cat code #1914) in accordance with the manufacturer's instructions. The mRNA was then reverse transcribed (using the RETROscript kit; Ambio) to yield a cDNA preparation. A full length cDNA of the sstr2 gene was then obtained by PCR (using a Peltier PTC-200 thermal cycler using the following cycle times and conditions: 94°C for 2 min, followed by 30 cycles of 94°C, for 30 sec, 55°C for 30sec, 72°C for 1 min and finally 72°C for 10 min), and isolated by preparative gel electrophoresis. The sequence of the sstr2 cDNA was confirmed by sequencing. The sstr2 cDNA was treated with EcoRI and Xhol to generate sticky ends, which allowed directional cloning into the polylinker of the plasmid pcDNA3.1+ (Invitrogen) followed by ligation (10µl ligation reactions were run with 400 T4 DNA ligase (New England Biolabs) and the maximal amounts of DNA with an insert:plasmid ratio of 3:1 in ligase buffer incubated overnight at 13°C). The resulting vector (see Fig. 13) was used to transform XL-10 Ultracompetent cells (Stratagene) using standard techniques. Plasmid DNA was prepared using a MiniPrep kit (Wizard Plus SV Minipreps DNA purification System; Promega) in accordance with the manufacturer's instructions for transfection into Jurkat T cells.
Jurkat T cells were grown in RPMI + 10% foetal calf serum (FCS), and subcultured by 1:3 dilution in fresh medium every 4 days. Jurkat T cells in logarithmic growth phase 48 hours after subculture were washed by centrifugation and resuspended in serum-free RPMI medium at 7.5 x 10^5 cells per ml. A mixture of DNA and transfection reagent (2µg of DNA; 3µl Fugene 6 transfection reagent; Roche) was then added and the cells were incubated at 37°C for 48 hours. The cells were then washed three times by centrifugation in RPMI + 10% FCS, before being suspended in fresh medium at 1 x 10^5 cells per ml. 68 ml of the resulting cell suspension was then plated out in a total of 226 wells in 96-well plates (Corning). After 48hrs, G418 (0.9mg/ml Active G418) was added to the medium to select for transfectants, and the cells were expanded by repeated subculture, keeping the populations from individual wells (which were considered clonal or oligoclonal expansions) separate. […]
A number of individual cell lines were obtained in this way, which expressed significant levels of sstr2 on the cell surface, detected by flow cytometry using the human-sstr2 antibody (Sigma, S0694; see Example 3 for details of the flow cytometry protocol used). […]

SMILES	inhibition of LPS-induced TNF-alpha production (in words) (TNF-alpha)	Emax (fetal rat pituicytes)	pEC50 (fetal rat pituicytes)	pEC50 [1]	Emax [1]	"Classical" : "BSCI" potency ratio Rat [1]	inhibition of SDF-1α induced migration of Jurkat-D3B (in words) (Jurkat-D3B cells)	pEC50 (Jurkat-D3B cells; Homo sapiens, 100ng/ml SDF-1α, Jurkat-D3B, read-out: ED50 (the source's name))	increase in BSCI sensitivity from ectopic expression of sstr2 (Jurkat-D3B cells; Jurkat-D3B versus parental Jurkat T cells)
CCCCCCCCCCC(C)(C)C(=O)N[C@H]1CCCCNC1=O [BN83250, (S)-3-(2',2'-dimethyldodecanoyl)amino-caprolactam]	dramatically inhibited	63%	6.49	9.55	100%	0.0009	inhibits SDF-1α induced migration	~8.00	more than 100 fold
CC(C)(C)C(=O)N[C@H]1CCCNC1=O [Valerolactam, (S)-3-(2'2'-dimethylpropionoylamino)-tetrahydropyridin-2-one]	dramatically inhibited	61%	7.10	10.15	100%	0.0009	sensitive to inhibition	–	–
